The values that follow come from article PMC3762585 (Chemical & pharmaceutical bulletin, 2012).

The term IC50 denotes the concentration needed to halve the response being measured.

Read-outs that look alike come from different tables or passages of the source. Some results are limits rather than exact numbers.

For series [1], the system named is JMAR, MDA-1986, B16F10, SKMEL-28 and MRC-5 cells. The experiment in a line: MTS viability. The class given is cell-based. The conditions noted are these: for anti-proliferative activity (cytotoxic effect): tested with a concentration of 20 μM, all five cell lines; for IC50: read-out: IC50 values, range over the cells tested.
In series [2] the test system is MDA-1986. The series is described as follows: MTS viability. As to conditions: Homo sapiens, MDA1986, read-out: Cytotoxicity IC50 MDA-1986.
In series [3] the test system is B16F10. The series is described as follows: MTS viability. As to conditions: Mus musculus, B16-F10, read-out: Cytotoxicity IC50 B16F10.
A further series can be described thus: in vitro. As to conditions: human.
Series [4] concerns SKMEL-28. The series is described as follows: MTS viability. The conditions noted are these: Homo sapiens, SK-MEL-28, read-out: Cytotoxicity IC50 SKMEL-28.
The test system of series [5] is JMAR. The series is described as follows: MTS viability. The conditions noted are these: Homo sapiens, read-out: Cytotoxicity IC50 JMAR.
Series [6] deals with JMAR.
Series [7] has as its system B16F10.
Series [8] relates to SKMEL-28.
The subject of series [9] is MDA-1986.

Regarding “19-hydroxy viscosalactone B [Withalongolide P 2]”, the “anti-proliferative activity (cytotoxic effect)” value in series [1] was “inactive”.
In the case of `CC1=C(CO)C(=O)O[C@@H]([C@@H](C)[C@H]2CC[C@H]3[C@@H]4C[C@H]5O[C@]56[C@@H](O)C=CC(=O)[C@]6(C)[C@H]4CC[C@]23C)C1` [Withaferin A 6, withaferin A], the IC50 in the series on MDA-1986 [2] is 0.86 ± 0.25 µM; in series [1], 0.15 to 12.7 µM; in the series with B16F10 [3], 0.27 ± 0.04 µM; in the series “in vitro”, 0.32 ± 0.06 µM; in the series on SKMEL-28 [4], 3.5 ± 0.15 µM.
Turning to `CC1=C(C)C(=O)O[C@@H]([C@@H](C)[C@H]2CC[C@H]3[C@@H]4C[C@H]5O[C@]56[C@@H](O)C=CC(=O)[C@]6(CO)[C@H]4CC[C@]23C)C1` [Withalongolide B 5, withalongolide B], the IC50 was 1.7 ± 0.08 µM in the series on MDA-1986 [2]; 0.25 ± 0.14 µM with JMAR [5]; 0.15 to 12.7 µM in [1]; 0.26 ± 0.07 µM in the series with B16F10 [3]; 0.38 ± 0.03 µM in “in vitro”; 3.3 ± 0.48 µM in the series with SKMEL-28 [4].
With `CC1=C(CO)C(=O)O[C@@H]([C@@H](C)[C@H]2CC[C@H]3[C@@H]4C[C@H]5O[C@]56[C@@H](O)[C@@H](O)CC(=O)[C@]6(C)[C@H]4CC[C@]23C)C1` [viscosalactone B 3, viscosalactone B], the IC50 in the series on MDA-1986 [2], in the series on JMAR [5], with B16F10 [3], in “in vitro” and with SKMEL-28 [4] was more than 20 µM in each case. In [1], the “anti-proliferative activity (cytotoxic effect)” value is “inactive”.
As for “Withalongolide O 4,7-Diacetate [Withalongolide O 4,7-diacetate 1a]”, the IC50 was 0.83 ± 0.14 µM with JMAR [6]; 0.53 ± 0.12 µM in the series with MRC-5; 0.69 ± 0.14 µM in the series with B16F10 [7]; 0.18 ± 0.03 µM in the series on SKMEL-28 [8]; 0.54 ± 0.07 µM in the series with MDA-1986 [9].
